The numbers were not newly measured in patent US6620802B1, “Methods of treating mild cognitive impairment using a glucocorticoid-specific receptor antagonist” (Corcept Therapeutics, Inc., priority 1999, dated 2003), which cites them from elsewhere.

For series [1] the following is noted: one study, Kawai (1989) supra.
Another series deals with rat hippocampus. As to conditions: Talmi et al. 1996.
Series [2] relates to mouse hippocampus neuronal cells. Particulars: Behl et al. 1997.
Series [3] has as its target T1, glucocorticoid (GR) receptor (Homo sapiens, UniProt P04150).
T1 sequence (P04150 1-777): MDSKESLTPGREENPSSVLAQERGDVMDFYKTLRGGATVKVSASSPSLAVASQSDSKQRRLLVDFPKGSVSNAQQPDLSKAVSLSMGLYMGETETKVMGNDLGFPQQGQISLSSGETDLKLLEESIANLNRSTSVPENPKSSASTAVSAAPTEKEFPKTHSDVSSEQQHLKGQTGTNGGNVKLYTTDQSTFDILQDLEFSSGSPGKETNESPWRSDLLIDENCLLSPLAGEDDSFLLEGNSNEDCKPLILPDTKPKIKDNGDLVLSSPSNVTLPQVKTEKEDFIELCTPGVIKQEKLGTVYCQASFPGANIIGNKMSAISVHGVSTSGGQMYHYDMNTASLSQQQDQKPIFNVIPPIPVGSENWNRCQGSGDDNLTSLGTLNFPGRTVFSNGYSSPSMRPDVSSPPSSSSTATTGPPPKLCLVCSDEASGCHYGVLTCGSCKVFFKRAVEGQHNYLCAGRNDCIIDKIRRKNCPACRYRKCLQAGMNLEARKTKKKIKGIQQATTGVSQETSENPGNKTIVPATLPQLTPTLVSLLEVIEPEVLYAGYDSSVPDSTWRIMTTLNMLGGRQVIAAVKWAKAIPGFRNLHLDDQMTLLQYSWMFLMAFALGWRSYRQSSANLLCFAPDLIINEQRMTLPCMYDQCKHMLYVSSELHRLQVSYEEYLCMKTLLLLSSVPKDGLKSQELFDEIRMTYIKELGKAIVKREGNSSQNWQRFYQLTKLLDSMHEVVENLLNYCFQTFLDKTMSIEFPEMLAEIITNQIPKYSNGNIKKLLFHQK
Particulars: literature statement.

The next series deals with T2, progesterone receptor (Homo sapiens, UniProt P06401).
T2 sequence (P06401 1-933): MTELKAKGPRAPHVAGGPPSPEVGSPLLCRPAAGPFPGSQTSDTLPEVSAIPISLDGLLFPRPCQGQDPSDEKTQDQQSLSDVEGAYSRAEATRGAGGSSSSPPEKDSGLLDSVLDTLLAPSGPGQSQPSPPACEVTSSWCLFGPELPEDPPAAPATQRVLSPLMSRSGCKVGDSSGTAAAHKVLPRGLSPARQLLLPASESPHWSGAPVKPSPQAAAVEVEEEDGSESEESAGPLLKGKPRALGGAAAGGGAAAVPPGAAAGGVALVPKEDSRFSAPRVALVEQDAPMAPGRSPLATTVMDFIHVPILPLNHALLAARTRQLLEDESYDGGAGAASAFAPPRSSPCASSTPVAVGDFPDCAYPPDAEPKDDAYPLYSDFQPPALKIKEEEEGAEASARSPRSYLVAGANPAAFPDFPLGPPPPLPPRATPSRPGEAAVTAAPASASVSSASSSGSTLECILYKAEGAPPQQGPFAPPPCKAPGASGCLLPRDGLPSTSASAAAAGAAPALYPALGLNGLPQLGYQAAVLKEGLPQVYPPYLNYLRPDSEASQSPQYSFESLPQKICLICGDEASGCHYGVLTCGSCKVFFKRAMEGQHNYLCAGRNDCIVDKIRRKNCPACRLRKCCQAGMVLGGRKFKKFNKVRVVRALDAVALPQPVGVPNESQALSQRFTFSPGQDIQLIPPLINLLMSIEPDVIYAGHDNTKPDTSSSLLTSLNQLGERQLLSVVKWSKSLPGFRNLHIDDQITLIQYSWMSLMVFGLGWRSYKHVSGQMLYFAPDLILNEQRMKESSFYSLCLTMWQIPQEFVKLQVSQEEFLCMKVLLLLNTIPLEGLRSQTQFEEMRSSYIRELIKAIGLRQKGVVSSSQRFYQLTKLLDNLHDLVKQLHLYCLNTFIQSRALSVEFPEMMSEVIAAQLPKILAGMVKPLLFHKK
Particulars: literature statement.

On to `CC#C[C@]1(O)CC[C@H]2[C@@H]3CCC4=CC(=O)CCC4=C3[C@@H](c3ccc(N(C)C)cc3)C[C@@]21C` [Mifepristone, 17-beta-hydroxy-11-beta-(4-dimethyl-aminophenyl)-17-alpha(1-propynyl)-estra-4,9-dien-3-one], for which, in series [1], the “share of the daily dose excreted in the urine” value was “less than 0.5%”. In the series on rat hippocampus, the “effect on age-associated electrophysiological changes” value was “effective at abrogating some of the age-associated electrophysiological changes”. The “protection against oxidative stress-induced neuronal cell death” value in series [2] was “providing protection against oxidative stress-induced neuronal cell death”. Further, the GR antagonist activity entry in series [3] was “powerful antagonist”. The “progesterone receptor antagonist activity” value at progesterone receptor is on record as “powerful antagonist”.

With `CC#C[C@]1(O)CC[C@H]2[C@@H]3CCC4=CC(=O)CCC4=C3[C@@H](c3ccc(OCCN(C)C)cc3)C[C@@]21C` [RU009, 11-beta-(4-dimethyl-aminoethoxyphenyl)-17-alpha-(propynyl-17-beta-hydroxy-4,9-estradien-3-one)], in series [3], the GR antagonist activity entry is “shown to have GR antagonist effects”.
